Results published in patent publication US6090780A (Chandon Prasad, priority 1999, dated 2000).

Experiments:
Format in all cases: in vivo
C57BL mice [1] = experiment: Voluntary alcohol consumption in alcohol naive mice (two-bottle choice); details: for % ETHANOL PREFERENCE (mean ± SEM): 7 days
Experimental: Forty adult male C57BL mice were obtained from Jackson Laboratories and housed individually in light controlled rooms for a period of at least ten days after arrival with free access to Purina Chow and water. The lights were cycled on and off every twelve hour period. Mice were divided into four groups of ten. Each room was fitted with two 250 ml bottles having drip proof drinking spouts on both sides of a food bin containing Purina Chow. One bottle contained 6% (V/V) ethanol in water whereas the other bottle contained water. […] The two bottles were frequently exchanged with each other to minimize positional preference. Fluid intake from each bottle was recorded after 7 days.
Ethanol preference was calculated as ethanol intake/(ethanol intake+water intake)×100.

C57BL mice [2] = experiment: Voluntary alcohol consumption in alcohol experienced mice (two-bottle choice); details: for ETHANOL PREFERENCE (%): 7 days
Experimental: Forty adult male C57BL mice were obtained from Jackson Laboratories and housed individually in light controlled rooms for a period of at least ten days prior to beginning the experiment with free access to Purina Chow and water. The lights were cycled on and off every twelve hour period. The mice were divided into four groups of ten. Each room was fitted with two 250 ml bottles having drip proof drinking spouts on both sides of a food bin containing Purina Chow. Both bottles contained 6% (V/V) ethanol in water and were the only source of fluid available. Mice were allowed to drink for seven days. On the eighth day, one bottle containing ethanol in water was removed and replaced with a 250 ml bottle containing water. […] The bottles were frequently exchanged to discourage positional preference. Fluid intake from each bottle was recorded after an additional 7 days. % Ethanol preference was calculated for each group.

Sprague-Dawley rats = experiment: Effect of intraperitoneal and oral administration of CHP on food intake; details: for food intake, mean ± SEM, n = 6: 7 h after 21 h fast; for effect on food consumption: up to 50 mg/Kg of body weight
Experimental: Thirty-six outbred adult male Sprague-Dawley rats, certified virus free, obtained from Hilltop Laboratories, New York, N.Y. were housed in a temperature and light controlled room for a period of at least seven days after arrival. Sprague-Dawley rats are white albino outbred rats. The temperature of the room was maintained at about 20-21° C. The lights in the room were cycled between on and off every twelve hours. The rats were allowed free access to Purina Chow food and water prior to beginning the experiment. For the experiment rats were divided into six groups of six rats each. […] The amount of CHP in each dose was based on the body weight of the individual rat. Rats were fasted for about 21 hours from food but not water. Oral dosages of CHP were administered using a gavage tube according to each rat group. The rats were then given access to Purina Chow and water for the next seven hours. Food intake during the seven hours was measured in grams per rat and averaged for each group. […] At the end of this period, the experiment was repeated using intraperitoneal administration.

[3] = CHP 1 μg/ml fluid in each bottle
[4] = CHP 5 μg/ml fluid in each bottle
[5] = CHP 10 μg/ml fluid in each bottle

Substance: Histidyl-proline diketopiperazine [CHP]
- effect on average daily fluid intake (C57BL mice [1]; ANOVA: F=0.09, p=0.96): did not effect
- alcohol preference after CHP administration (C57BL mice [1]; ANOVA: F=3.73, p=0.019): dose dependence decrease
- AVERAGE FLUID INTAKE (C57BL mice [1]; [3]): 2.9 mL/day
- % ETHANOL PREFERENCE (mean ± SEM) (C57BL mice [1]; [3]): 29 ± 6%
- AVERAGE FLUID INTAKE (C57BL mice [1]; [4]): 2.8 mL/day
- % ETHANOL PREFERENCE (mean ± SEM) (C57BL mice [1]; [4]): 23 ± 6%
- AVERAGE FLUID INTAKE (C57BL mice [1]; [5]): 2.7 mL/day
- % ETHANOL PREFERENCE (mean ± SEM) (C57BL mice [1]; [5]): 15%
- alcohol preference after CHP administration (C57BL mice [2]; ANOVA: F=3.88, p=0.0195): dose dependence decrease
- ETHANOL PREFERENCE (%) (C57BL mice [2]; [3]): 58%
- ETHANOL PREFERENCE (%) (C57BL mice [2]; [4]): 54%
- ETHANOL PREFERENCE (%) (C57BL mice [2]; [5]): 40%
- food intake, mean ± SEM, n = 6 (Sprague-Dawley rats; intraperitoneal, 1 mg/kg of body weight): 17.6 ± 3.6 g/rat
- food intake, mean ± SEM, n = 6 (Sprague-Dawley rats; intraperitoneal, 5 mg/kg of body weight): 14.2 ± 0.7 g/rat
- food intake, mean ± SEM, n = 6 (Sprague-Dawley rats; intraperitoneal, 10 mg/kg of body weight): 14.1 ± 2.9 g/rat
- food intake, mean ± SEM, n = 6 (Sprague-Dawley rats; intraperitoneal, 20 mg/kg of body weight): 14.4 ± 1.0 g/rat
- food intake, mean ± SEM, n = 6 (Sprague-Dawley rats; intraperitoneal, 50 mg/kg of body weight): 14.7 ± 1.2 g/rat
- effect on food consumption (Sprague-Dawley rats; intraperitoneal, ANOVA F=1.86, p=0.13): no significant effect
- food intake, mean ± SEM, n = 6 (Sprague-Dawley rats; oral, 1 mg/kg of body weight): 14.3 ± 2.2 g/rat
- food intake, mean ± SEM, n = 6 (Sprague-Dawley rats; oral, 5 mg/kg of body weight): 14.7 ± 1.2 g/rat
- food intake, mean ± SEM, n = 6 (Sprague-Dawley rats; oral, 10 mg/kg of body weight): 13.1 ± 2.1 g/rat
- food intake, mean ± SEM, n = 6 (Sprague-Dawley rats; oral, 20 mg/kg of body weight): 15.1 ± 2.3 g/rat
- food intake, mean ± SEM, n = 6 (Sprague-Dawley rats; oral, 50 mg/kg of body weight): 15.7 ± 1.7 g/rat
- effect on food consumption (Sprague-Dawley rats; oral, ANOVA F=0.92): no significant effect
